Laboratory results from ChEMBL document CHEMBL3593231, “3,5-Diarylpyrazole Derivatives Obtained by Ammonolysis of the Total Flavonoids from Chrysanthemum indicum Extract Show Potential for the Treatment of Alzheimer's Disease” (J Nat Prod, 2015).
pIC50: −log10 of the molar value. Active and inactive are the calls of the source. No cut-off for these calls is given here.

Assays:
[1] = target: T1, Amyloid-beta precursor protein (Homo sapiens, UniProt P05067); experiment: Inhibition of amyloid beta (1 to 42) (unknown origin) aggregation after 48 hrs by thioflavin T fluorescence assay
[2] = target: T1, Amyloid-beta precursor protein; experiment: Potency index, ratio of curcumin IC50 to compound IC50 for inhibition of amyloid beta (1 to 42) (unknown origin) aggregation
[3] = test system: SH-SY5Y; experiment: Cytotoxicity against human SH-SY5Y cells assessed as cell viability at 10 uM after 48 hrs by MTT assay; assay type: cell-based
[4] = test system: SH-SY5Y; experiment: Neuroprotective activity against amyloid beta (1 to 42)-induced cytotoxicity in human SH-SY5Y cells at 5 to 80 uM after 48 hrs by MTT assay; assay type: functional, cell-based

T1 sequence (P05067 whole entry): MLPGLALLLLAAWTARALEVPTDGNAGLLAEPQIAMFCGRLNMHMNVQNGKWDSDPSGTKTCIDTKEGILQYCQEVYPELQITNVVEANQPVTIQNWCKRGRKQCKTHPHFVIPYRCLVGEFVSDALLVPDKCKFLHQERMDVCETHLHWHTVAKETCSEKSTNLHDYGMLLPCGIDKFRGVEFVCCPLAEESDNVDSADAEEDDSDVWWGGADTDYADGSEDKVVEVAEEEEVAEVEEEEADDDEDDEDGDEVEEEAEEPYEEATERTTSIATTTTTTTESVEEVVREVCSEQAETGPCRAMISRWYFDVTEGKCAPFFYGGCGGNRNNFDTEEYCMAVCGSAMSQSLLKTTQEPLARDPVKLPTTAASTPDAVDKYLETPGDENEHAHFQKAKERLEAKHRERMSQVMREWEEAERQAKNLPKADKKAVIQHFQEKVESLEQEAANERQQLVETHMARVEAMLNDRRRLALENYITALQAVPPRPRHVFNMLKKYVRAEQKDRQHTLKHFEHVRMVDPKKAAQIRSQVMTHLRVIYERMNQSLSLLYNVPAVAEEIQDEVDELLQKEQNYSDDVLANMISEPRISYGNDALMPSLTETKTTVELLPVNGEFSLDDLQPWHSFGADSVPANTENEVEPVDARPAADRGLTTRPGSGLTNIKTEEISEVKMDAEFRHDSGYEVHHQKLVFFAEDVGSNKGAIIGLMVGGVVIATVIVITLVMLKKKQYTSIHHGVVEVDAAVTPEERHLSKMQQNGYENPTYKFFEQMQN

Row | pIC50 [1] | Ratio IC50 [2] | Structure (SMILES) | Activity [3] | Activity [4]
1 | 4.80 |  | Oc1ccc(-c2cc(-c3c(O)cccc3O)[nH]n2)cc1 |  | 
2 | 5.89 | 3 | Oc1ccc(-c2cc(-c3c(O)cccc3O)[nH]n2)cc1O | Non-toxic | Active
3 | 5.37 |  | COc1cc(-c2cc(-c3c(O)cccc3O)[nH]n2)ccc1O | Non-toxic | 
4 | 5.54 |  | COc1cc(-c2cc(-c3c(O)cccc3O)[nH]n2)cc(OC)c1O | Non-toxic | 
